Assay [1] has as its system SKOV-3 cells. The experiment in a line: In vitro cytotoxic activity of h1F6 antibody drug conjugates on SKOV-3 cells (CelltiterGlo viability). In kind it is cell-based. To be noted: 96 hours, viability by Promega CelltiterGlo. As for the experimental part:
(See International Patent Publication WO 2006-113909.) The cells were incubated with the following anti-CD70 antibody drug conjugates: h1F6-vc-MMAF(4), h1F6vc-MMAE(4), 1F6mc-MMAF(4), or h1F6mc-MMAF(8) or free MMAF. (See the specification and U.S. Patent Application Publication Nos. 2005-0238649 and 2006-0233794 for a description of the drug linkers. The number in parentheses after each conjugate indicates the average drug loading per antibody.) The SKOV-3 cells were incubated with the conjugates at the indicated concentrations for 96 hours. For these studies, viability was determined using Promega CelltiterGlo.

The subject of assay [2] is native CD70 protein (modified cynomolgus CD70). Kind of assay: Binding of h1F6 to native CD70 on transfected pancreatic cell lines. The following applies: transfected HPAFII, PANC-1 and MiaPaCa-2 cell lines.

Read-outs that look alike come from different tables or passages of the source. Square brackets hold non-standard residues; d marks the D form. Peptide text beside a SMILES is read from it. Dolaproine = CO[C@@H]([C@@H]1CCCN1)[C@@H](C)C(=O)O; Dil = CC[C@H](C)[C@H](NC)[C@@H](CC(=O)O)OC; NMeV = CN[C@H](C(=O)O)C(C)C

For `CC[C@H](C)[C@@H]([C@@H](CC(=O)N1CCC[C@H]1[C@H](OC)[C@@H](C)C(=O)N[C@@H](Cc1ccccc1)C(=O)O)OC)N(C)C(=O)[C@@H](NC(=O)[C@@H](NC)C(C)C)C(C)C` [MMAF, dovaline-valine-dolaisoleunine-dolaproine-phenylalanine, reference compound] (H-[NMeV]V[Dil][Dolaproine]F-OH), in assay [1] (free MMAF, read-out: IC50), the IC50 came to 18 nM.

As to “h1F6: humanized form of anti-CD70 monoclonal antibody 1F6, binds native CD70”, the “binding to native CD70 protein” value in assay [2] is reported as “binds”.

B1: h1F6mc-MMAF(8) (conjugate, chains of the INN, looked up)
VH: QVQLVQSGAEVKKPGASVKVSCKASGYTFTNYGMNWVRQAPGQGLKWMGWINTYTGEPTYADAFKGRVTMTRDTSISTAYMELSRLRSDDTAVYYCARDYGDYGMDYWGQGTTVTVSS
VL: DIVMTQSPDSLAVSLGERATINCRASKSVSTSGYSFMHWYQQKPGQPPKLLIYLASNLESGVPDRFSGSGSGTDFTLTISSLQAEDVAVYYCQHSREVPWTFGQGTKVEIK
modifications: maleimidocaproyl-MMAF, 8 drugs per antibody
In turn, B1 registered an IC50 in assay [1] of 0.012 µg/mL.
